Earlier results in patent US20030084473A1, “Non-transgenic herbicide resistant plants” (priority 2001, published 2003).

Target: wild-type EPSPS from E. coli (Escherichia coli, UniProt P0A6D3)
Conditions: read-out: apparent Km for PEP

wild-type EPSPS from E. coli, sequence (P0A6D3 whole entry): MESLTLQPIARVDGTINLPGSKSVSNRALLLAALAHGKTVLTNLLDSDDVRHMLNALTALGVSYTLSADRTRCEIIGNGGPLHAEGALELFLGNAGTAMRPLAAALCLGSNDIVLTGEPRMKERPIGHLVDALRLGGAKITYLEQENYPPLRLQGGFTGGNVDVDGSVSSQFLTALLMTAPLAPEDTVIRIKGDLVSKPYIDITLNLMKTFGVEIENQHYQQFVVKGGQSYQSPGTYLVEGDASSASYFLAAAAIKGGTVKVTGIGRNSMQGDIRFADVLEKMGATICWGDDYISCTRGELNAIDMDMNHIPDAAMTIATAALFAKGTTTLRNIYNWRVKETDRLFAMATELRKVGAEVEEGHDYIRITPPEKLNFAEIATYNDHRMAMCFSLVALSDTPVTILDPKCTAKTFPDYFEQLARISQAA

For `C=C(OP(=O)(O)O)C(=O)O` [PEP, phosphoenolpyruvic acid], the Km is listed as 10 µM.
